Counter-ions that a name gives are not always drawn.
Assays:
[1] = system: Apple scab fungus (Venturia inaequalis); assay: Apple scab control test (foliar spray on apple seedlings); type: in vivo; conditions: 125 ppm active ingredient, sprayed on apple seedlings (variety Orin) before inoculation, vs untreated
Experimental: The dilution was sprayed to apple seedlings (variety “Orin”, 3 to 4 leaf stage) grown in clay pots. […] The control value was calculated by the following equation. [formula]

[2] = system: wheat leaf rust fungus (Puccinia recondita); assay: Wheat leaf rust control test (foliar spray on wheat seedlings); type: in vivo; conditions: 240 h, 125 ppm active ingredient, sprayed on wheat seedlings (variety Norin 61) before inoculation, 10 days, vs untreated
[3] = system: Tomato late blight fungus (Phytophthora infestans); assay: whole plant or invertebrate; type: in vivo; conditions: foliar, 96 h, read-out: control value
[4] = system: cucumber gray mold fungus (Botrytis cinerea); assay: Cucumber gray mold control test (foliar spray on cucumber seedlings); conditions: in Cucumis sativus, 96 h, read-out: control value

| SMILES | melting point [°C] | also measured |
| --- | --- | --- |
| Cc1c(C)n(CCCOc2ccc(C(=N)N)cc2)c(=N)n1CCCOc1ccc(C(=N)N)cc1 (as salt: hydrochloride) [compound 109] | 188 to 199 | – |
| Cc1cc(C(=N)N)ccc1OCCCCNC(=N)NCCCCOc1ccc(C(=N)N)cc1C (as salt: hydrochloride) [compound 84] | 171 to 180 | – |
| N=C(N)c1ccc(OCCCCCn2ccn(CCOc3ccc(C(=N)N)cc3)c2=N)cc1 (as salt: hydrochloride) [compound 93] | 183 to 187 | – |
| N=C(N)c1ccc(OCCCn2ccn(CCCc3cc4cc(C(=N)N)ccc4o3)c2=N)cc1 (as salt: hydrochloride) [compound 126] | 227 to 236 | – |
| N=C(N)c1ccc(OCCCn2ccn(CCCOc3ccc(C(=N)N)cc3Cl)c2=N)c(Cl)c1 (as salt: hydrochloride) [compound 99] | 184 to 190 | – |
| N=C(NCC#Cc1ccc(C(=N)N)cc1)NCC#Cc1ccc(C(=N)N)cc1 (as salt: hydrochloride) [compound 155] | 220 | – |
| N=C(N)c1ccc(OCCCCn2ccn(CCCCOc3ccc(C(=N)N)cc3)c2=N)cc1 (as salt: hydrochloride) [compound 36, 4-[4-[3-[4-(4-carbamimidoylphenoxy)butyl]-2-imino-imidazol-1-yl]butoxy]benzamidine] | 178 to 180 | – |
| Cc1cn(CCCOc2ccc(C(=N)N)cc2)c(=N)n1CCCOc1ccc(C(=N)N)cc1 (as salt: hydrochloride) [compound 114] | 182 to 186 | – |
| N/C(=N\O)c1ccc(OCCCn2ccn(CCCOc3ccc(/C(N)=N/O)cc3)c2=NC(=O)C(F)(F)F)cc1 [compound 55, N-[1,3-bis[3-[4-[N′-hydroxycarbamimidoyl]phenoxy]propyl]-1,3-dihydro-2H-imidazol-2-ylidene]-2,2,2-trifluoroacetamide] | 187 to 201 | – |
| N=C(N)c1ccc(OCCCn2ccn(CCCSc3ccc(C(=N)N)cc3)c2=N)cc1 (as salt: hydrochloride) [compound 173] | 168 to 171 | – |
| N=C(NCCCOCc1ccc(C(=N)N)cc1)NCCCOc1ccc(C(=N)N)cc1 (as salt: trifluoroacetate) [compound 143] | 192 to 197 | – |
| N=C(N)c1ccc(OCCCn2ccn(CCCOc3ccc(C(=N)N)c(F)c3)c2=N)cc1F (as salt: hydrochloride) [compound 103] | 183 to 187 | – |
| N=C(NCC/C=C/c1ccc(C(=N)N)cc1)NCC/C=C/c1ccc(C(=N)N)cc1 (as salt: hydrochloride) [compound 151] | 179 to 181 | – |
| N=C(N)c1ccc(SCCCn2ccn(CCCSc3ccc(C(=N)N)cc3)c2=N)cc1 (as salt: hydrochloride) [compound 181] | 169 to 172 | – |
| N=C(NCCCOc1ccc(C(=N)N)c(F)c1)NCCCOc1ccc(C(=N)N)c(F)c1 (as salt: hydrochloride) [compound 82] | 181 to 185 | – |
| N=C(NCCCOCc1ccc(C(=N)N)cc1)NCCCOc1ccc(C(=N)N)cc1 [compound 142] | – | pest or weed control at 125 ppm [1]: ≥ 75%; pest or weed control at 125 ppm [2]: ≥ 75%; pest or weed control at 125 ppm [3]: ≥ 75%; pest or weed control at 125 ppm [4]: ≥ 75% |
| N=C(NCCOCc1ccc(C(=N)N)cc1)NCCOCc1ccc(C(=N)N)cc1 (as salt: hydrochloride) [compound 226] | 262 to 267 | – |
| CC1(C)CNC(c2ccc(OCCCCNC(=N)NCCCCCCCCNC(=N)N)cc2)=N1 [compound 256] | – | pest or weed control at 125 ppm [1]: ≥ 75%; pest or weed control at 125 ppm [2]: ≥ 75%; pest or weed control at 125 ppm [3]: ≥ 75%; pest or weed control at 125 ppm [4]: ≥ 75% |
| N=C(NCCCc1cc2cc(C(=N)N)ccc2o1)NCCCc1cc2cc(C(=N)N)ccc2o1 (as salt: hydrochloride) [compound 80] | 174 to 182 | – |
| N=C(N)NCCCCCCCn1ccn(CCCOc2ccc(C3=NCCCN3)cc2)c1=N [compound 206] | – | pest or weed control at 125 ppm [1]: ≥ 75%; pest or weed control at 125 ppm [2]: ≥ 75%; pest or weed control at 125 ppm [3]: ≥ 75%; pest or weed control at 125 ppm [4]: ≥ 75% |
| N=C(N)NCCCCCCCCNC(=N)NCCOCc1ccc(C2=NCCCN2)cc1 [compound 220] | – | pest or weed control at 125 ppm [1]: ≥ 75%; pest or weed control at 125 ppm [2]: ≥ 75%; pest or weed control at 125 ppm [3]: ≥ 75%; pest or weed control at 125 ppm [4]: ≥ 75% |
